Test system: mouse islets
Test: LDH leakage cytotoxicity of mouse islets cultured in the presence of neutrophil elastase
Type: cell-based
Conditions: FIG. 3
Experimental: The concentration of the neutrophil elastase inhibitor used in the isolation method of the present invention was examined as follows using the extracellular leakage of LDH (lactate dehydrogenase) (indicator for cytotoxicity) as an indicator.
First, mouse islets were cultured in the presence of neutrophil elastase at a concentration of 0.31 to 10 μg/mL and the supernatant was collected after a lapse of a certain time. Subsequently, the remaining mouse islets were homogenized and the islet suspension was collected. LDH contained in the collected supernatant and the islet suspension was measured by using a LDH assay kit to measure absorbance at 562 nm. The optimal concentration of the neutrophil elastase inhibitor was examined by adding 2 to 200 μM of the neutrophil elastase inhibitor, sivelestat, in culturing mouse islets in the presence of various concentrations of neutrophil elastase, and similarly measuring the amount of LDH. The cytotoxicity was expressed as the percentage (%) of the amount of LDH contained in the supernatant in the sum of the amount of LDH contained in the supernatant and the amount of LDH contained in the islet suspension.

CC(C)(C)C(=O)Oc1ccc(S(=O)(=O)Nc2ccccc2C(=O)NCC(=O)O)cc1 [sivelestat]
optimal concentration of the neutrophil elastase inhibitor (from suppression of LDH leakage among 2, 20, 200 μM): 20 µM
damage of islet cells (cytotoxicity, LDH in supernatant as % of total LDH) (mouse islets with neutrophil elastase 0.31 to 10 μg/mL, 2, 20 or 200 μM sivelestat compared, result at 20 μM): most suppressed

Source: patent US8759099B2, “Pancreatic islet separation method, and protective solution for protecting pancreatic islet tissue” (Otsuka Pharmaceutical Factory, Inc., priority 2010, dated 2014)
